Like-named read-outs stand apart in the source and are kept apart here.
How the values were obtained:
bone marrow of mice = test system: bone marrow of mice; parameters: method as in Zimmerman and Raj ([1980]); details: ref Zimmerman and Raj ([1980]); cited from earlier work
colon-derived cells = test system: colon-derived cells; parameters: method as in Aviello et al. ([2012]); details: 24 h of treatment, ref Aviello et al. ([2012]); cited from earlier work
[1] = parameters: method as in Taylor et al. [2018]; details: oral solution of CBD, healthy adults, ref Taylor et al. [2018], cited from earlier work
[2] = test system: human lymphoblastoid TK6 cells; parameters: method as in Henderson et al. ([2023]); details: TK6, with and without metabolic activation 4 h, and 27 h without metabolic activation; ref Henderson et al. ([2023]); cited from earlier work
TK6 cells [3] = experiment: Mitotic disturbance assay; format: cell-based, human; details: 6 h, without S9; CBG 30 µM, CBD 15 µM, CBC 15 µM, CBDV 40 µM, CBN 15 µM; vs solvent control
Method: The cells were treated for 6 h with CBG 30 µM, CBD 15 µM, CBC 15 µM, CBDV 40 µM, and CBN 15 µM. The positive control was vincristine sulphate 0.0121 µM, and the solvent control was DMSO. For the experiments with or without the S9 mix (final concentration 0.25%), TK6 cells were treated with either CBDV 40 µM or vincristine sulphate 10 ng/mL for 6 h. DMSO with or without S9 mix was used as control. Further procedure was as described for micronucleus experiments, except with direct harvest after cannabinoid treatment without the incubation period with cytochalasin B. Two slides were evaluated with a Nikon Eclipse 55i fluorescent microscope for each experimental condition. The independent experiments were conducted three times.
The cells were counted in categories apoptosis, interphase, prophase, metaphase, anaphase-telophase, disturbed metaphase, and disturbed anaphase-telophase in 1000 cells. The mitotic index was calculated as a sum of the number of cells in prophase, metaphase, anaphase-telophase, disturbed metaphase, and disturbed anaphase-telophase in 1000 cells. Disturbed metaphase and disturbed anaphase-telophase were defined as deviating from the usual appearance of mitoses. Disturbed mitoses were assessed in 100 mitotic cells per slide.

TK6 cells [4] = experiment: Tubulin visualization; format: cell-based, human; details: 6 h; CBG 30 µM, CBD 15 µM, CBC 15 µM, CBN 15 µM; visually compared to control, not quantified
Method: For tubulin visualization, cells were treated with CBG 30 µM, CBD 15 µM, CBC 15 µM, CBDV 40 µM, and CBN 15 µM. The positive control was vincristine sulphate 0.0121 µM, and the solvent control was DMSO. Cells were treated for 6 h and then harvested. Slides were prepared with cytospin centrifugation. The cells were fixed in ice-cold methanol for 2 h. Following fixation, cells were permeabilized with 0.1% Tween20 in 1 × phosphate-buffered saline (PBS) for 5 min. Next, the anti-α-tubulin antibody was applied in 1:50 dilution. Antibody was diluted with 5% FCS in 1 × PBS. The antibody was incubated in a humid chamber at 4 °C for 24 h. Afterwards, the antibody was removed by washing slides twice with 0.5% Tween20 in 1 × PBS for 5 min. Nuclei were counterstained with Hoechst 33,258 (5 µg/mL, 3 min). The visualization was performed with a Keyence BZ-X800 microscope.

[5] = test system: human gastric cancer, Sertoli and Leydig cells; parameters: method as in Zhang et al. [2019]; Li et al. [2022], [2023]; details: 24 h of treatment; upregulated p53, reduced CDK2 and cyclin E; ref Zhang et al. [2019]; Li et al. [2022], [2023]; cited from earlier work
[6] = test system: human lymphoblastoid TK6 cells; experiment: Kinetochore analysis of micronuclei; format: cell-based; details: 4 h
Method: For kinetochore analysis, cells were treated for 4 h with CBG 30 µM, CBD 15 µM, CBC 15 µM, CBDV 40 µM, and CBN 15 µM. The positive controls were MMS 40 µM, and vincristine sulphate 0.0121 µM; the solvent control was DMSO. After 4 h of treatment, the culture medium was renewed, and cells were exposed for 24 h to the cytokinesis inhibitor cytochalasin B (3 μg/mL). Then, cells were harvested, and slides were prepared with cytospin centrifugation. The cells were fixed in ice-cold methanol for 2 h. Kinetochores were stained overnight with undiluted primary anti-centromere antibody at 37 °C followed by 1:20 diluted FITC-conjugated secondary antibody at 37 °C for 2 h. Nuclei were counterstained with Hoechst 33,258 (5 µg/mL, 3 min). The experiment was performed one time. Per compound, 200 micronuclei were evaluated for kinetochore signal presence (Fig. 3). The evaluation was performed with a Keyence BZ-X800 microscope. The slides used in kinetochore evaluation were also evaluated for the number of induced micronuclei as described in the above paragraph cytokinesis‑block micronucleus assay.

[7] = test system: human buccal cell line TR146; parameters: method as in Russo et al. ([2019]); details: ref Russo et al. ([2019]), cited from earlier work
human hepatoma cells = test system: human hepatoma cells; parameters: method as in Russo et al. ([2019]); details: 3 h of treatment, ref Russo et al. ([2019]); cited from earlier work
[8] = test system: human lymphoblastoid TK6 cells; experiment: Cytokinesis-block micronucleus (CBMN) assay
[9] = test system: bone marrow or liver of rats; parameters: method as in European Medicine Agency (EMA) ([2019]); details: bone marrow or liver of rats after CBD treatment; ref European Medicine Agency (EMA) ([2019]); cited from earlier work

## C=C(C)[C@@H]1CCC(C)=C[C@H]1c1c(O)cc(CCCCC)cc1O [CBD, cannabidiol]
Bone marrow of mice
  Micronuclei in bone marrow in vivo: induction of micronuclei
colon-derived cells
  DNA damage (comet assay): did not induce DNA damage
[1]; high-fat meal
  Mean plasma Cmax following a high-fat meal: 1628 ng/mL
[1]; high-fat meal, read-out: Mean plasma Cmax following a high-fat meal
  Cmax: 5.2 µM
[1]
  Mean plasma Cmax: 335.4 ng/mL
[1]; read-out: Mean plasma Cmax
  Cmax: 1.1 µM
[2]
  Micronucleus results: negative micronucleus results
TK6 cells [3]
  Mitotic index: significantly decreased the mitotic index
TK6 cells [4]
  Multipolar and monopolar tubulin aggregation: observed more frequently
[5]
  Cell cycle effect: G1 phase cell cycle arrest
[6]; of 200 micronuclei, CBG 30 µM, CBD 15 µM, CBC 15 µM, CBDV 40 µM, CBN 15 µM, MMS 40 µM, vincristine 0.0121 µM, one experiment
  Kinetochore (+) MNi, %: 47%
[6]; treatment – control (basal level of micronuclei subtracted), same concentrations
  Kinetochore (+) induced MNi: 63.7%
[7]; TR146, after 3 and 24 h
  DNA damage (comet assay): damaged DNA
[7]; TR146, with liver enzymes
  Genotoxic properties with addition of liver enzymes (comet assay): increased the genotoxic properties
Human hepatoma cells
  Micronucleus induction: significant induction of micronuclei
[8]; 10th percentile of BMD50 estimation, 4 h, micronucleus data
  BMDL (10th percentile): 2.1 µM
[8]; 50% increased relative genotoxicity vs controls, from micronucleus data, 4 h treatment, without S9, Bayesian BMD analysis
  4 h BMD50: 8.7 µM
[8]; 90th percentile of BMD50 estimation, 4 h, micronucleus data
  BMDU (90th percentile): 21.1 µM
[8]; 4 h, CBG 30 µM, CBD 15 µM, CBC 15 µM, CBDV 40 µM, CBN 15 µM, 0.25% S9 mix
  Number of micronuclei with S9 mix vs without: significant reduction in the number of micronuclei
[8]; 4 h treatment, without metabolic activation, at least one concentration, vs solvent control
  Micronucleus induction: significant induction of micronuclei
[9]
  Micronucleus and comet assay in vivo: negative results

From publication PMC11402852, “Genotoxicity of selected cannabinoids in human lymphoblastoid TK6 cells” (Archives of Toxicology, 2024)
